The values below come from ChEMBL document CHEMBL3593237, “Synthesis and biological evaluation of isoflavone amide derivatives with antihyperlipidemic and preadipocyte antiproliferative activities” (Bioorg Med Chem, 2015).

For series [1], the target named is T1, Cholesteryl ester transfer protein (Oryctolagus cuniculus) (UniProt P22687).
T1 sequence (whole entry): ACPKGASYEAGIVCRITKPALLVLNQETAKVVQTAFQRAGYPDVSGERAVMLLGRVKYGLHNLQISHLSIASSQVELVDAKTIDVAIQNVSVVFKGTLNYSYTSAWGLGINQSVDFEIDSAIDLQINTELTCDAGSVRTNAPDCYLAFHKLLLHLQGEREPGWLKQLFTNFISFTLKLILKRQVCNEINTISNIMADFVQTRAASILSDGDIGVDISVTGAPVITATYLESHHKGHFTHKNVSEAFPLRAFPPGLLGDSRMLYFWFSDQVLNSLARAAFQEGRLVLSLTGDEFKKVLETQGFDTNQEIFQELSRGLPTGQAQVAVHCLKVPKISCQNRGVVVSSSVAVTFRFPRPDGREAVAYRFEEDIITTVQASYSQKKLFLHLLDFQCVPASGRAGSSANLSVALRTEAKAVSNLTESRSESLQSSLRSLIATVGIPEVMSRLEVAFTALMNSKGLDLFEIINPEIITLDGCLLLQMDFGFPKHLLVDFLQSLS
Briefly: Inhibition of CETP in rabbit serum at 100 uM incubated for 1 hr using NBD-labeled cholesterol in HDL and LDL by fluorescence based assay.

In the next series the test system is 3T3-L1. Briefly: Inhibition of cell proliferation of mouse 3T3L1 cells at 100 uM incubated for 48 hrs by MTT assay. Type of series: functional, cell-based. (Formazan colour is commonly taken as a measure of viable cells.)
Series [2] concerns the target T2, Cholesteryl ester transfer protein (Oryctolagus cuniculus, UniProt P22687).
T2 sequence (P22687 whole entry): T1 sequence (whole entry)
The experiment in a line: Inhibition of CETP in rabbit serum incubated for 1 hr using NBD-labeled cholesterol in HDL and LDL by fluorescence based assay.

The test system of another series is HepG2. The experiment in a line: Toxicity against human HepG2 cells assessed as inhibition of cell proliferation at 100 uM incubated for 48 hrs by MTT assay. The class given is cell-based. The note with it: hepg2, 48 h.
Series [3] has as its system Syrian golden hamster. The experiment in a line: Antihyperlipidemic activity in Syrian golden hamster model of high lipid diet-induced dyslipidemia model assessed as reduction in LDL-C at 50 mg/kg/day, po for 28 days. The class given is functional, Mesocricetus auratus. Also on record: scale not given: the % may be the effect or the level left.
Series [4] deals with Syrian golden hamster. The experiment in a line: Antihyperlipidemic activity in Syrian golden hamster model of high lipid diet-induced dyslipidemia model assessed as increase in HDL-C at 50 mg/kg/day, po for 28 days. The class given is functional, Mesocricetus auratus.

Calls of active or inactive are those of the source. The rule behind the calls is not given here.

For `COc1ccccc1OCC(=O)Nc1ccc(-c2coc3cc(OC(C)=O)ccc3c2=O)cc1`, the inhibition entry in series [1] was “inactive”. Further, in the series on 3T3-L1, the inhibition entry is “Active”.
Consider `CC(=O)Oc1ccc2c(=O)c(-c3ccc(NC(=O)COc4ccccc4C)cc3)coc2c1`, for which the inhibition entry (in series [1]; in the series with 3T3-L1) was “Active” throughout. Inhibition in series [2] was half-maximal at 8.42 µM (IC50).
For the compound `Cc1cccc(OCC(=O)Nc2ccc(-c3coc4cc(O)ccc4c3=O)cc2)c1`, in series [1], the inhibition entry is “Active”. For the same compound, in the series on 3T3-L1, the inhibition entry is “inactive”.
On to `Cc1ccc(OCC(=O)Nc2ccc(-c3coc4cc(O)ccc4c3=O)cc2)cc1`, for which the inhibition entry in series [1] is “Active”. The inhibition entry with 3T3-L1 was “inactive”.
For `CC(=O)Oc1ccc2c(=O)c(-c3ccc(NC(=O)COc4ccccc4)cc3)coc2c1`, the inhibition entry (in series [1]; in the series on 3T3-L1) was “Active” each time. For the same compound, in series [2], the 50% inhibitory concentration (IC50) (usually the concentration that gives 50% inhibition) was 1.52 µM. Further, the Activity entry with HepG2 is given as “Non-toxic”; with Syrian golden hamster [3] it was 44.6%; in the series on Syrian golden hamster [4] it was 66%.
On to `CC(=O)Oc1ccc2c(=O)c(-c3ccc(NC(=O)COc4cccc5ccccc45)cc3)coc2c1`, for which the inhibition entry (in series [1]; in the series with 3T3-L1) was “Active” each time.
With `CC(=O)Oc1ccc2c(=O)c(-c3ccc(NC(=O)COc4cccc(C)c4)cc3)coc2c1`, the inhibition entry in series [1] was “inactive”. In addition, in the series with 3T3-L1, the inhibition entry is “Active”.
As for `O=C(COc1cccc2ccccc12)Nc1ccc(-c2coc3cc(O)ccc3c2=O)cc1`, in series [1], the inhibition result is “Active”. The inhibition entry with 3T3-L1 is “inactive”.
For `CC(=O)Oc1ccc2c(=O)c(-c3ccc(NC(=O)COc4ccc(C)cc4)cc3)coc2c1` the same measures were “inactive” and “Active”.
For the compound `O=C(COc1ccccc1)Nc1ccc(-c2coc3cc(O)ccc3c2=O)cc1`, the inhibition result in series [1] is “Active”. Moreover, the inhibition result in the series with 3T3-L1 was “inactive”.
On to `CCCCCCCC/C=C\CCCCCCCC(=O)Oc1ccc2c(=O)c(-c3ccc(OC)cc3)coc2c1`, for which the inhibition entry in the series on 3T3-L1 is “Active”.
Turning to `COc1cc(F)c(C(C)C)cc1-c1ccc(C(F)(F)F)cc1CN1C(=O)O[C@H](c2cc(C(F)(F)F)cc(C(F)(F)F)c2)[C@@H]1C`, the inhibition entry in series [1] is “Active”.
As for `COc1ccccc1OCC(=O)Nc1ccc(-c2coc3cc(O)ccc3c2=O)cc1`, the inhibition result (in series [1]; with 3T3-L1) was “inactive” throughout.
In the case of `Cc1ccccc1OCC(=O)Nc1ccc(-c2coc3cc(O)ccc3c2=O)cc1`, the inhibition result in series [1] is “Active”. Moreover, the inhibition result in the series on 3T3-L1 is “inactive”.
